According to the NIST ThermoML archive (doi:10.1016/j.jct.2012.04.029):

Details: Liquid, Ebulliometric method (Recirculating still)

COCC(C)O (stereo not drawn) [1-methoxy-2-propanol]
Details	vapor or sublimation pressure [kPa]
342.3 K	15
352.5 K	23.5
360.1 K	32
367.4 K	42.1
371.6 K	49.1
376 K	57.6
380 K	66.1
383.5 K	74.6
386.9 K	83.3
390.1 K	92.6
392.8 K	99.9
397.9 K	116.9
400 K	125.5
402.2 K	134
404.3 K	142.5
406.3 K	151
408.2 K	159.5
410 K	168
411.8 K	176.5

COCCO [2-methoxyethan-1-ol]
Details	vapor or sublimation pressure [kPa]
346.4 K	15
356.9 K	23.5
364.7 K	32
376 K	49
380.6 K	57.5
384.5 K	66
388.1 K	74.5
391.3 K	83
394.4 K	91.5
397.2 K	100
400.1 K	108.5
402.6 K	117
404.9 K	125.5
407 K	134
409.1 K	142.5
411.1 K	151
412.9 K	159.5
414.7 K	168
416.6 K	176.5
